The test system of one experiment is Cryptococcus neoformans. As to the kind of experiment: standard agar-dilution assay (MIC). The format is cell-based. From the text:
Antibiotic A-30641 inhibits the growth of bacteria and fungi which are pathogenic to animal and plant life. The minimal inhibitory concentrations (MIC's) at which antibiotic A-30641 inhibited a variety of organisms, using a standard agar-dilution assay, are summarized in Table III.

The subject of another experiment is C. albicans. As to the kind of experiment: dermal C. albicans infection in rabbits, topical treatment. It counts as in vivo. Conditions: 10 days, 1% solution in propylene glycol. An excerpt: Antibiotic A-30641 is particularly useful when administered topically.

The MIC is the least concentration at which growth counts as inhibited. The low end stands for a more susceptible organism, the high end for a less susceptible organism. `COC1c2cc(Cl)c(O)cc2ON2C(=O)C3NC(=O)C12SS3` (centres unmarked) [antibiotic A-30641] yielded an MIC with Cryptococcus neoformans of over 0.156 µg/mL. Besides, in the experiment with C. albicans, the “lesions caused by a dermal C. albicans infection, severity and size” value is “reduced in severity and size”.

Values taken from US4001086A (priority 1976, dated 1977).
